From the NIST ThermoML archive (doi:10.1016/j.jct.2019.105891)

Key:
[1] = xn = mol fraction of the nth substance listed; conditions: 100 kPa, Liquid, Falling or rolling sphere viscometry
[2] = refractive index (Na D-line) (dimensionless); xn = mol fraction of the nth substance listed; conditions: 100 kPa, Liquid, Standard Abbe refractometry
[3] = 100 kPa, Liquid, Falling or rolling sphere viscometry
[4] = refractive index (Na D-line) (dimensionless); conditions: 100 kPa, Liquid, Standard Abbe refractometry

CCCCn1cc[n+](C)c1.F[B-](F)(F)F [1-butyl-3-methylimidazolium tetrafluoroborate] + Nc1ccccc1
x1 = 1
Conditions | refractive index, 293.15 K | refractive index, 303.15 K | refractive index, 313.15 K | refractive index, 323.15 K | viscosity, 293.15 K [mPa·s] | viscosity, 303.15 K [mPa·s] | viscosity, 313.15 K [mPa·s] | viscosity, 323.15 K [mPa·s]
[1] | – | – | – | – | 135.7 | 80.4 | 51.4 | 34.92
[2] | 1.42144 | 1.41913 | 1.41621 | 1.4133 | – | – | – | –

Nc1ccccc1 [aniline] + CCCCn1cc[n+](C)c1.F[B-](F)(F)F
Conditions | refractive index, [2] | viscosity, [1] [mPa·s]
293.15 K, x2 = 0 | 1.58481 | 4.38
293.15 K, x2 = 0.1001 | 1.55273 | 7.66
293.15 K, x2 = 0.4991 | 1.47256 | 36.82
293.15 K, x2 = 0.6032 | 1.45814 | 50.14
293.15 K, x2 = 0.7021 | 1.44443 | 65.33
293.15 K, x2 = 0.7907 | 1.43496 | 81.22
293.15 K, x2 = 0.9026 | 1.42669 | 104.99
303.15 K, x2 = 0 | 1.58152 | 3.24
303.15 K, x2 = 0.1001 | 1.54951 | 5.46
303.15 K, x2 = 0.4991 | 1.46852 | 22.05
303.15 K, x2 = 0.6032 | 1.4544 | 31.1
303.15 K, x2 = 0.7021 | 1.44151 | 40.82
303.15 K, x2 = 0.7907 | 1.43264 | 50.78
303.15 K, x2 = 0.9026 | 1.42433 | 66.19
313.15 K, x2 = 0 | 1.57823 | 2.47
313.15 K, x2 = 0.1001 | 1.54532 | 4.04
313.15 K, x2 = 0.4991 | 1.46448 | 14.67
313.15 K, x2 = 0.6032 | 1.45067 | 20.79
313.15 K, x2 = 0.7021 | 1.43859 | 26.92
313.15 K, x2 = 0.7907 | 1.43031 | 33.47
313.15 K, x2 = 0.9026 | 1.42197 | 42.66
323.15 K, x2 = 0 | 1.57494 | 1.95
323.15 K, x2 = 0.1001 | 1.54114 | 3.08
323.15 K, x2 = 0.2028 | 1.51499 | 4.56
323.15 K, x2 = 0.4991 | 1.46044 | 10.52
323.15 K, x2 = 0.6032 | 1.44694 | 14.73
323.15 K, x2 = 0.7021 | 1.43567 | 18.58
323.15 K, x2 = 0.7907 | 1.42799 | 23.06
323.15 K, x2 = 0.9026 | 1.41961 | 29.65

CCn1cc[n+](C)c1.F[B-](F)(F)F [1-ethyl-3-methylimidazolium tetrafluoroborate]
Conditions | refractive index, 293.15 K | refractive index, 303.15 K | refractive index, 313.15 K | refractive index, 323.15 K | viscosity, 293.15 K [mPa·s] | viscosity, 303.15 K [mPa·s] | viscosity, 313.15 K [mPa·s] | viscosity, 323.15 K [mPa·s]
[3] | – | – | – | – | 45.69 | 30.54 | 21.82 | 16.42
[4] | 1.41509 | 1.41117 | 1.40802 | 1.40512 | – | – | – | –

Nc1ccccc1 [aniline]
Conditions | refractive index, 293.15 K | refractive index, 303.15 K | refractive index, 313.15 K | refractive index, 323.15 K | viscosity, 293.15 K [mPa·s] | viscosity, 303.15 K [mPa·s] | viscosity, 313.15 K [mPa·s] | viscosity, 323.15 K [mPa·s]
[3] | – | – | – | – | 4.38 | 3.24 | 2.47 | 1.95
[4] | 1.58481 | 1.58152 | 1.57823 | 1.57494 | – | – | – | –

CCn1cc[n+](C)c1.F[B-](F)(F)F [1-ethyl-3-methylimidazolium tetrafluoroborate] + Nc1ccccc1
x1 = 1
Conditions | refractive index, 293.15 K | refractive index, 303.15 K | refractive index, 313.15 K | refractive index, 323.15 K | viscosity, 293.15 K [mPa·s] | viscosity, 303.15 K [mPa·s] | viscosity, 313.15 K [mPa·s] | viscosity, 323.15 K [mPa·s]
[1] | – | – | – | – | 45.69 | 30.54 | 21.82 | 16.42
[2] | 1.41509 | 1.41117 | 1.40802 | 1.40512 | – | – | – | –

CCCCn1cc[n+](C)c1.F[B-](F)(F)F [1-butyl-3-methylimidazolium tetrafluoroborate]
Conditions | refractive index, 293.15 K | refractive index, 303.15 K | refractive index, 313.15 K | refractive index, 323.15 K | viscosity, 293.15 K [mPa·s] | viscosity, 303.15 K [mPa·s] | viscosity, 313.15 K [mPa·s] | viscosity, 323.15 K [mPa·s]
[3] | – | – | – | – | 135.7 | 80.4 | 51.4 | 34.92
[4] | 1.42144 | 1.41913 | 1.41621 | 1.4133 | – | – | – | –
